Source: article PMC3800051 (Bioorganic & medicinal chemistry letters, 2009)
Entries after “also recorded” stand apart in the source; their conditions may differ.

How the values were obtained:
PLD1 [1] = biological target: T1, PLD1 (Homo sapiens, UniProt Q13393); conditions: cellular assay, Calu-1 cells
T1 sequence (Q13393 1-1074): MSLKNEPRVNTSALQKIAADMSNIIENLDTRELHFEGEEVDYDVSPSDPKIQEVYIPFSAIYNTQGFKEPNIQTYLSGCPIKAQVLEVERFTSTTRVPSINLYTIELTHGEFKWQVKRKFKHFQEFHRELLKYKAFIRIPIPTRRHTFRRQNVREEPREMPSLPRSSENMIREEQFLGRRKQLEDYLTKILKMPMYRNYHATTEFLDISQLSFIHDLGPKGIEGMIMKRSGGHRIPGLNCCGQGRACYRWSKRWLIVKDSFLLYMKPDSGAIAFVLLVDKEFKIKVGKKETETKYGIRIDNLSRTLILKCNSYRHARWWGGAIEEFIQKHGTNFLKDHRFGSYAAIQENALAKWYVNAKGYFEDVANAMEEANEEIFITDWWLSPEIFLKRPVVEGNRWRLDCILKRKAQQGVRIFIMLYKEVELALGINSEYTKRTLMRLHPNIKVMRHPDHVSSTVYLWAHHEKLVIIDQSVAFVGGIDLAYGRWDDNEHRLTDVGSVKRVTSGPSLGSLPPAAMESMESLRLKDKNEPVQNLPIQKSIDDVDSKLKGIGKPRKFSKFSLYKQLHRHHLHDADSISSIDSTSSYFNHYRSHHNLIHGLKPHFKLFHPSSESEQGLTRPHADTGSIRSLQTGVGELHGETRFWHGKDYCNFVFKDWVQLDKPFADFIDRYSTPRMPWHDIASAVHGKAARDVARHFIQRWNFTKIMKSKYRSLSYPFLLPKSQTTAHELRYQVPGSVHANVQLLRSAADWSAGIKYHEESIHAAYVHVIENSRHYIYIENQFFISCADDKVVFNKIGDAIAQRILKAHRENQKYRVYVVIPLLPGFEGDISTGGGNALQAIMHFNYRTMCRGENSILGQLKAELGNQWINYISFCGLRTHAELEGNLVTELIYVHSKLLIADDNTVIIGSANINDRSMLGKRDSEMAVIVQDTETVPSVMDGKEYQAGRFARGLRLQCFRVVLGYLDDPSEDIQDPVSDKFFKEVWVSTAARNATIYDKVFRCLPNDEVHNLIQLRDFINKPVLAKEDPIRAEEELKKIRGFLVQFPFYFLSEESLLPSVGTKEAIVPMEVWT

PLD2 = PLD2 (Homo sapiens, UniProt O14939); conditions: cellular assay, HEK293-gfpPLD2 cells
PLD1 [2] = biological target: T1, PLD1; assay: cell-based

PLD2, sequence (O14939 whole entry): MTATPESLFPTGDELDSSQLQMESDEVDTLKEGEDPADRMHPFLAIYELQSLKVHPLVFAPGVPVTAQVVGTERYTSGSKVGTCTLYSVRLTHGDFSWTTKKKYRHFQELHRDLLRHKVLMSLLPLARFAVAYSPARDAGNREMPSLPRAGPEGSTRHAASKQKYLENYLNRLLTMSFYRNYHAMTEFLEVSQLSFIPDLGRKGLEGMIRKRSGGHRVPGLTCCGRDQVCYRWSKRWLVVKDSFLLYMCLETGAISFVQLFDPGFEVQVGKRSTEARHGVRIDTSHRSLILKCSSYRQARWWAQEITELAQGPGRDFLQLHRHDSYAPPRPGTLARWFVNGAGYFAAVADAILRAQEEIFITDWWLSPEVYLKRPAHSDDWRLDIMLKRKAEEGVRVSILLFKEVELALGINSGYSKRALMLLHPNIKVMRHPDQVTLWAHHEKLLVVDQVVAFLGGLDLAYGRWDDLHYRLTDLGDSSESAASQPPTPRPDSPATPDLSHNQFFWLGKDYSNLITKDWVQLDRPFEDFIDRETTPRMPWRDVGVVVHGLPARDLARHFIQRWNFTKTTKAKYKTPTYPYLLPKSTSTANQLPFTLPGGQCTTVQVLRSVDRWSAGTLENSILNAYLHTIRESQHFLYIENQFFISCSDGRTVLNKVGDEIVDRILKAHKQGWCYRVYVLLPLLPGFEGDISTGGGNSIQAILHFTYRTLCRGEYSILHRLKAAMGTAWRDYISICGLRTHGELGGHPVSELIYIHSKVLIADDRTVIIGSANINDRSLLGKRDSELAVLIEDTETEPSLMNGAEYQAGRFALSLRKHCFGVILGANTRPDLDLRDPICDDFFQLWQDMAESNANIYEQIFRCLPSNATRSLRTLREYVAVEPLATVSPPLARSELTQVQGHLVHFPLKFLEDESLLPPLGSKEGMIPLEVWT

Structure (SMILES) | PLD1 inhibition (in words) (PLD1 [1]) | PLD2 inhibition (in words) (PLD2) | IC50 (PLD1 [2])
O=C(NCCN1CCC2(CC1)C(=O)NCN2c1ccccc1)[C@H]1C[C@@H]1c1ccccc1 [Compound 9a] | inactive on both PLD isoforms; also recorded: complete loss of PLD inhibition | inactive on both PLD isoforms; also recorded: complete loss of PLD inhibition | 
O=C(NCCN1CCC2(CC1)C(=O)NCN2c1ccccc1)c1cnc2ccccc2n1 [Compound 9g] | complete loss of PLD inhibitory activity | complete loss of PLD inhibitory activity | 
C[C@@H](CN1CCC2(CC1)C(=O)NCN2c1ccccc1)NC(=O)[C@H]1C[C@@H]1c1ccccc1 [Compound 10b] |  | no effect, relative to 9a, on PLD2 inhibition | 
c1cc(N2CCNCC2)ccn1 [Compound 15] |  |  | 3.6 to 18 µM
c1ccc(N2CCNCC2)nc1 [Compound 16] |  |  | 3.6 to 18 µM
